Test results from US6861235B1, “Method for controlling target microorganism” (priority 1998, dated 2005).
“Also recorded” adds a separate entry of the source. Where two headings read alike, the source gives them in different places. Peptide text beside a SMILES is read from it.

Tests used:
NKR strain [1] = format: cell-based, Burkholderia sp. N16-1 strain
NKR strain [2] = format: cell-based, Burkholderia sp. N16-1 strain; settings: for cell count of the NKR strain in the soil vs no addition: pH-adjusted SB soil
[3] = system: Ralstonia solanacearum OE1-1 strain; format: cell-based; settings: for cell count of the OE1-1 strain vs 0 ppm: Example 9; for control of R. solanacearum OE1-1 strain: Examples 9 and 10 summary, addition of 500 ppm or more
[4] = system: total cell count in the soil; format: cell-based
[5] = system: R. solanacearum OE1-1 strain; format: in vivo, tomato; settings: 500 ppm D-serine-added contaminated soil
[6] = system: total cell count in the soil; assay: Total cell count in soil inoculated with the NKR strain (DNB agar medium); format: cell-based; settings: Example 3; SB soil pH 7.0; sucrose solution with M9 medium (N, P and C source) added on day 13
[7] = Biolog GN plate, compounds in parentheses showed slight color development
[8] = Example 7, SB soil, 5000 ppm substrate, D-serine metabolites
[9] = Example 5, 5000 ppm added after 5 days at 20° C.

Molecule	assimilation by the NKR strain (color development of an oxidation-reduction indicator) (NKR strain [1]; [7])	also measured
NCCc1ccccc1 [phenylethylamine]	no color development	–
C[C@H](N)C(N)=O [alanine amide]	slight color development	–
gentiobiose	–	assimilation by the NKR strain (color development of an oxidation-reduction indicator) (NKR strain [1]): no color development
O=C[C@H](O)[C@@H](O)[C@H](O)[C@H](O)COP(=O)(O)O [glucose-6-phosphate]	slight color development	–
glycogen	no color development	–
O=C(O)/C=C/c1c[nH]cn1 [urocanic acid]	slight color development	–
O=C(CO)[C@H](O)[C@H](O)[C@H](O)CO [D-piscose]	slight color development	–
CC(=O)C(=O)O [pyruvic acid]	–	cell count of the NKR strain vs control section (NKR strain [2]; [8]): markedly declined; also recorded: exhibited control effects
NC(=O)[C@@H](O)[C@@H](O)[C@H](O)[C@@H](O)C=O [glucuronamide]	slight color development	–
C=C(CC(=O)O)C(=O)O [itaconic acid]	no color development	–
NCCO [ethanolamine]	slight color development	cell count of the OE1-1 strain vs 0 ppm ([3]; ethanolamine 500 ppm sequentially added or 1000 ppm or greater): decrease in the cell counts; cell count of the OE1-1 strain vs 0 ppm ([3]; one-time addition of 500 ppm ethanolamine): did not exhibit sufficient effects; control of R. solanacearum OE1-1 strain [3]: works to control; cell count of the NKR strain vs control section (NKR strain [2]; [8]): markedly declined; also recorded: exhibited control effects; total cell count in the soil [4]: remained constant
NC(CO)C(=O)O [D-serine, 2-amino-3-hydroxypropionic acid]	does not assimilate; also recorded: no color development	cell count of the OE1-1 strain vs control ([3]; Example 8, field soil, 5000 ppm): declined markedly; cell count of the OE1-1 strain vs 0 ppm ([3]; field soil, D-serine 500, 1000, 2000 or 5000 ppm): a reduction in the cell count; control of R. solanacearum OE1-1 strain [3]: works to control; germination of tomato seeds ([5]; day 4 after sowing): germination of the tomato seeds was observed; growth of young tomato seedlings ([5]; no-addition seedlings all died except one by day 10): grew normally; cell count of the NKR strain in the soil vs no addition (NKR strain [2]; Example 4, 0.5% D-serine added after 2 days culture at 30° C.): markedly reduced; also recorded: markedly declined; also recorded: very effective; cell count of the NKR strain in the soil vs no addition (NKR strain [2]; [9]): markedly declined; also recorded: very effective; cell count of the NKR strain vs control section (NKR strain [2]; Example 6, 5000 ppm, Kuroboku (black) soil A (field soil)): no effects were observed; cell count of the NKR strain vs control section (NKR strain [2]; Example 6, 5000 ppm, Kuroboku (black) soil B, sandy soils A, B, C, D (all soils excluding Kuroboku soil A)): markedly declined; total cell count in the soil [4]: almost no changes were observed
COC1OC(CO)C(O)C(O)C1O [β-methyl-D-glucose]	no color development	–
OC[C@H]1O[C@H](O[C@H]2O[C@H](CO)[C@@H](O)[C@H](O)[C@H]2O)[C@H](O)[C@@H](O)[C@@H]1O [D-trehalose]	slight color development	–
CC(=O)O [acetic acid]	no color development	–
COc1ccc2nccc(C(=O)O)c2c1 [quininic acid]	slight color development	–
N[C@@H](CC(=O)O)C(=O)O [L-aspartic acid]	slight color development	–
O=c1ccn([C@@H]2O[C@H](CO)[C@@H](O)[C@H]2O)c(=O)[nH]1 [uridine]	slight color development	–
NCCCCN [putrescine]	slight color development	–
NCCC[C@H](N)C(=O)O [L-omithine]	slight color development	–
CCC(O)C(=O)O (stereo not drawn) [α-hydroxybutyric acid]	slight color development	–
O=C(CO)[C@@H](O[C@H]1O[C@H](CO)[C@@H](O)[C@H](O)[C@H]1O)[C@H](O)[C@H](O)CO [turanose]	no color development	–
dextrin	no color development	–
α-cyclodexrin	no color development	–

Molecule	assimilation by the NKR strain (color development of an oxidation-reduction indicator) (NKR strain [1]; [7])	also measured
O=C[C@H](O)[C@@H](O)[C@H](O[C@@H]1O[C@H](CO)[C@@H](O)[C@H](O)[C@H]1O)[C@H](O)CO [cellobiose]	slight color development	–
C[C@@H](O)[C@H](N)C(=O)O [L-threonine]	slight color development	–
OC[C@@H](O)[C@H](O)[C@@H](O)CO [xylitol]	no color development	–
OC[C@@H](O)[C@@H](O)CO [erythritol]	no color development	–
CCC(=O)C(=O)O [α-ketobutyric acid]	slight color development	–
OC[C@H]1O[C@@H](O[C@H]2[C@H](O)[C@@H](O)[C@@H](O)O[C@@H]2CO)[C@H](O)[C@@H](O)[C@H]1O [α-D-lactose]	slight color development	–
O=C(O)CCCCCCCCC(=O)O [sebacic acid]	slight color development	–
O=C(O)CCC(=O)C(=O)O [α-ketoglutaric acid]	slight color development	–
NC(CO)C(=O)O (racemic) [DL-serine]	–	cell count of the NKR strain in the soil vs no addition (NKR strain [2]; [9]): the effect of cell count control can be observed though the degree of reduction is small
N[C@@H](CO)C(=O)O [L-serine]	slight color development	cell count of the NKR strain in the soil vs no addition (NKR strain [2]; [9]): remained almost constant; also recorded: almost no effect
O=P(O)(O)O[C@H]1O[C@H](CO)[C@@H](O)[C@H](O)[C@H]1O [glucose-1-phosphate]	no color development	–
CC(O)C(C)O (stereo not shown) [2,3-butanediol]	no color development	–
Cc1cn([C@H]2C[C@H](O)[C@@H](CO)O2)c(=O)[nH]c1=O [thymidine]	no color development	–
O=C(O)CC(=O)O [malonic acid]	slight color development	–
OC[C@H]1O[C@H](OC[C@H]2O[C@H](O[C@]3(CO)O[C@H](CO)[C@@H](O)[C@@H]3O)[C@H](O)[C@@H](O)[C@@H]2O)[C@H](O)[C@@H](O)[C@H]1O [D-raffinose]	no color development	–
O=P(O)(O)OCC(O)CO [D, L-α-glycerol phosphate]	no color development	–
O=C(O)[C@@H](O)[C@@H](O)[C@H](O)[C@@H](O)C(=O)O [D-saccharic acid]	slight color development	–
CCC(=O)O [propionic acid]	no color development	–
OC[C@H]1O[C@H](O[C@H]2[C@H](O)[C@@H](O)[C@H](O)O[C@@H]2CO)[C@H](O)[C@@H](O)[C@@H]1O [maltose]	no color development	–
O=C(O)CCCO [γ-hydroxybutyric acid]	no color development	–
NCC(=O)N[C@@H](CC(=O)O)C(=O)O [glycyl-L-aspartic acid] (H-Gly-Asp-OH)	no color development	–
N[C@H](CS)C(=O)O [D-cysteine]	–	cell count of the NKR strain vs control section (NKR strain [2]; [8]): markedly declined; also recorded: exhibited control effects
C[C@@H](N)C(=O)O [D-α-alanine]	no color development	cell count of the NKR strain vs control section (NKR strain [2]; [8]): markedly declined; also recorded: exhibited control effects
OC[C@H]1O[C@@](CO)(O[C@H]2O[C@H](CO)[C@@H](O)[C@H](O)[C@H]2O)[C@@H](O)[C@@H]1O [sucrose]	does not assimilate; also recorded: no color development	total cell counts in the soil [6]: increases in the total cell counts were observed; cell count of the NKR strain in the soil (NKR strain [2]; Example 3, SB soil pH 7.0, sucrose solution with M9 medium added on day 13 after inoculation): transiently increased but then starts to decline; also recorded: after a transient increase, decreased slightly
